Data taken from PubChem BioAssay AID1919002 (Molecular Pharmacology Branch, DTP, NCI, 2023).
Several values for one entry are separate records, joined by “and”; a condition that tells them apart may be missing. Equal entries are not always repeated.

Tested on: 743489-274-T-PDC complex spheroid growth
Test: Anticancer human tumor 743489-274-T-PDC patient-derived renal cell carcinoma cell line growth inhibition [AhR]
Conditions: for viability, T/C: stronger effect = lower value
Outline: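 Complex tumor spheroids co-cultured with HUVEC and human MSC stroma; AhR antagonists tested in combination with standard-of-care and investigational agents. Top concentration at or near clinical Cmax (else 10 microM), half-log dilutions; growth expressed as percent test/control.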

[1] = curve of first compound, second compound 0.1 µM
[2] = curve of first compound, second compound 0.316 µM
[3] = curve of first compound, second compound 1 µM
[4] = curve of first compound, second compound 3.16 µM
[5] = curve of first compound, second compound 10 µM
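Also: spheroids exposed to agents for 7 days before readout.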
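For viability, T/C in this document: 100% = DMSO vehicle control wells.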

Compound `Nc1ncn(C2CC(O)C(CO)S2)c(=O)n1` (centres undefined) + Cc1ccccc1N=Nc1ccc(NC(=O)c2ccnn2C)c(C)c1 has an IC50 [1] greater than 0.3 µM, an IC50 [2] greater than 0.3 µM and an IC50 [3] greater than 0.3 µM. For the same compound, the IC50 [4] was greater than 0.3 µM, the IC50 [5] was greater than 0.3 µM and the viability, T/C (second compound 0.1 µM, first compound 0.000949 µM) was 102%. For the same compound, the viability, T/C (second compound 0.1 µM, first compound 0.003 µM) was 87.6%, the viability, T/C (second compound 0.1 µM, first compound 0.00949 µM) was 82.9% and the viability, T/C (second compound 0.1 µM, first compound 0.03 µM) was 71.4%. It also gave a viability, T/C (second compound 0.1 µM, first compound 0.0949 µM) of 85.5%, a viability, T/C (second compound 0.1 µM, first compound 0.3 µM) of 75.5% and a viability, T/C (second compound 0.316 µM, first compound 0.000949 µM) of 85.5%. The viability, T/C (second compound 0.316 µM, first compound 0.003 µM) was 81.7%, the viability, T/C (second compound 0.316 µM, first compound 0.00949 µM) was 80.4% and the viability, T/C (second compound 0.316 µM, first compound 0.03 µM) was 81.7%. It also gave a viability, T/C (second compound 0.316 µM, first compound 0.0949 µM) of 87.2%, a viability, T/C (second compound 0.316 µM, first compound 0.3 µM) of 74.7% and a viability, T/C (second compound 1 µM, first compound 0.000949 µM) of 85.7%. For the same compound, the viability, T/C (second compound 1 µM, first compound 0.003 µM) was 84.4%, the viability, T/C (second compound 1 µM, first compound 0.00949 µM) was 86.3% and the viability, T/C (second compound 1 µM, first compound 0.03 µM) was 78.3%. The viability, T/C (second compound 1 µM, first compound 0.0949 µM) was 80.4%, the viability, T/C (second compound 1 µM, first compound 0.3 µM) was 85.4% and the viability, T/C (second compound 3.16 µM, first compound 0.000949 µM) was 83.4%. For the same compound, the viability, T/C (second compound 3.16 µM, first compound 0.003 µM) was 83.2%, the viability, T/C (second compound 3.16 µM, first compound 0.00949 µM) was 83.1% and the viability, T/C (second compound 3.16 µM, first compound 0.03 µM) was 87%. For the same compound, the viability, T/C (second compound 3.16 µM, first compound 0.0949 µM) was 82.4%, the viability, T/C (second compound 3.16 µM, first compound 0.3 µM) was 79.3% and the viability, T/C (second compound 10 µM, first compound 0.000949 µM) was 76%. The viability, T/C (second compound 10 µM, first compound 0.003 µM) was 69.9%, the viability, T/C (second compound 10 µM, first compound 0.00949 µM) was 92.1% and the viability, T/C (second compound 10 µM, first compound 0.03 µM) was 81.2%. For the same compound, the viability, T/C (second compound 10 µM, first compound 0.0949 µM) was 83.3% and the viability, T/C (second compound 10 µM, first compound 0.3 µM) was 76.5%.

In the case of `COc1cccc2c1C(=O)c1c(O)c3c(c(O)c1C2=O)CC(O)(C(=O)CO)CC3OC1CC(N)C(O)C(C)O1` (centres undefined), the viability, T/C (compound 0.0316 µM) is reported as 100% and 108% and 103%, the viability, T/C (compound 0.1 µM) is reported as 102% and 110% and 125% and the viability, T/C (compound 0.316 µM) is reported as 101% and 112% and 108%. The viability, T/C (compound 1 µM) was 107% and 105% and 103%, the viability, T/C (compound 3.16 µM) was 88% and 77.8% and 89.9% and the viability, T/C (compound 10 µM) was 65.5% and 21.7% and 22.8%. The IC50 (curve of compound) was > 10 µM and 5.59 µM and 6.23 µM.

With `COc1cc(Nc2ncc3c(n2)-c2ccc(Cl)cc2C(c2c(F)cccc2OC)=NC3)ccc1C(=O)O` + CC(CO)NC(=O)c1cc(-c2ccc(Cl)cc2)nn(-c2cnn(C)c2)c1=O the IC50 [1] was greater than 10 µM, the IC50 [2] was greater than 10 µM and the IC50 [3] was greater than 10 µM. It also gave an IC50 [4] greater than 10 µM, an IC50 [5] greater than 10 µM and a viability, T/C (second compound 0.1 µM, first compound 0.0316 µM) of 96.9%. For the same compound, the viability, T/C (second compound 0.1 µM, first compound 0.1 µM) was 95.2%, the viability, T/C (second compound 0.1 µM, first compound 0.316 µM) was 91.4% and the viability, T/C (second compound 0.1 µM, first compound 1 µM) was 84.4%. It also gave a viability, T/C (second compound 0.1 µM, first compound 3.16 µM) of 86.4%, a viability, T/C (second compound 0.1 µM, first compound 10 µM) of 88.9% and a viability, T/C (second compound 0.316 µM, first compound 0.0316 µM) of 98.7%. The viability, T/C (second compound 0.316 µM, first compound 0.1 µM) was 90.3%, the viability, T/C (second compound 0.316 µM, first compound 0.316 µM) was 91.3% and the viability, T/C (second compound 0.316 µM, first compound 1 µM) was 86.6%. It also gave a viability, T/C (second compound 0.316 µM, first compound 3.16 µM) of 93.5%, a viability, T/C (second compound 0.316 µM, first compound 10 µM) of 85.5% and a viability, T/C (second compound 1 µM, first compound 0.0316 µM) of 90.6%. The viability, T/C (second compound 1 µM, first compound 0.1 µM) was 97.3%, the viability, T/C (second compound 1 µM, first compound 0.316 µM) was 95.5% and the viability, T/C (second compound 1 µM, first compound 1 µM) was 76.4%. It also gave a viability, T/C (second compound 1 µM, first compound 3.16 µM) of 87.9%, a viability, T/C (second compound 1 µM, first compound 10 µM) of 87.3% and a viability, T/C (second compound 3.16 µM, first compound 0.0316 µM) of 101%. The viability, T/C (second compound 3.16 µM, first compound 0.1 µM) was 104%, the viability, T/C (second compound 3.16 µM, first compound 0.316 µM) was 95.2% and the viability, T/C (second compound 3.16 µM, first compound 1 µM) was 85.7%. It also gave a viability, T/C (second compound 3.16 µM, first compound 3.16 µM) of 82%, a viability, T/C (second compound 3.16 µM, first compound 10 µM) of 84.9% and a viability, T/C (second compound 10 µM, first compound 0.0316 µM) of 91.2%. For the same compound, the viability, T/C (second compound 10 µM, first compound 0.1 µM) was 102%, the viability, T/C (second compound 10 µM, first compound 0.316 µM) was 86.9% and the viability, T/C (second compound 10 µM, first compound 1 µM) was 93.9%. It also gave a viability, T/C (second compound 10 µM, first compound 3.16 µM) of 88.6% and a viability, T/C (second compound 10 µM, first compound 10 µM) of 94.5%.

For `CCc1c2c(nc3ccc(O)cc13)-c1cc3c(c(=O)n1C2)COC(=O)[C@]3(O)CC`, the viability, T/C (compound 0.000949 µM) was 105% and 85% and 104%, the viability, T/C (compound 0.003 µM) was 105% and 102% and 103% and the viability, T/C (compound 0.00949 µM) was 102% and 85.4% and 107%. For the same compound, the viability, T/C (compound 0.03 µM) was 83% and 70.5% and 95.8%, the viability, T/C (compound 0.0949 µM) was 77.1% and 65.4% and 83.9% and the viability, T/C (compound 0.3 µM) was 68.5% and 50.5% and 59.9%. For the same compound, the IC50 (curve of compound) was greater than 0.3 µM.
